Paper PMC9424819, “Evaluation of commonly used cardiovascular drugs in inhibiting vonoprazan metabolism in vitro and in vivo” (Frontiers in Pharmacology, 2022)
Structures can show the parent of a compound that is named as a salt. Where two headings read alike, the source gives them in different places.

Columns and labels:
[1] = tested on: vonoprazan metabolism (MI formation) in human liver microsomes; experiment: in vitro; conditions: pH 7.4
[2] = tested on: vonoprazan metabolism (MI formation) in rat liver microsomes; experiment: Inhibition of vonoprazan metabolism (MI formation) in rat liver microsome incubation; assay type: in vitro ADME; conditions: rat, rat liver microsomes, pH 7.4, probe vonoprazan (10 µM), metabolite MI measured; RLMs, 10 µM vonoprazan, MI formation
Procedure: (§1) Eleven common-used cardiovascular drugs were chosen to detect their possible inhibition effect on vonoprazan. […] After preincubation at 37°C for 5 min in a shaking water bath, 20 mM NADPH was added to initiate the reaction, which lasted 30 min and was stopped with […] of acetonitrile. The mixture was vortexed after adding 20 µL of diazepam and then centrifugated at 13,000 rpm for 5 min. A 2 µL aliquot of the final supernatant was injected into the UPLC–MS/MS system for analysis. The relative inhibition was calculated according to the relative MI decrease compared to the control (vonoprazan naturally metabolized in RLMs). […] The same procedures were performed. Then, an inhibition mechanism experiment was conducted for further exploration. […] Both inhibitor and substrate were added to the incubation system described above. Every concentration match had three parallels. The MI concentration was detected using the same conditions to depict the Lineweaver–Burk and Dixon plots.
(§2) The concentrations of vonoprazan and MI that were detected by UPLC-MS/MS were applied to GraphPad 7.0 (GraphPad Software Inc., United States) to calculate IC50 and depict plasma concentration-time curves and Lineweaver–Burk and Dixon plots. The pharmacokinetic parameters of the compartment analysis were calculated using DAS (version 3.2.8; The People’s Hospital of Lishui) and expressed as mean ± standard deviation. The t-test was carried out by SPSS 25.0 (SPSS Inc., United States) to compare those parameters. p value < 0.05 was considered statistically significant.

[3] = tested on: vonoprazan metabolism in rat liver microsomes (RLMs); experiment: as above; assay type: in vitro ADME
Procedure: as §1, §2

[4] = Pharmacokinetics of vonoprazan and MI in rats with or without inhibitor pretreatment; assay type: in vivo, Sprague-Dawley rats; conditions: for AUC(0-inf) / AUC(0-t) / Cmax / Tmax / CL/F / MRT last / Vd/F / half-life / MRT inf: male, Sprague-Dawley, rat, plasma, po, 2 mg/kg; for CL/F: read-out: CLz/F (converted); for MRT last: read-out: MRT(0-t); for Vd/F: read-out: Vz/F; for half-life: read-out: t1/2z (converted); for MRT inf: read-out: MRT(0-∞)
Procedure: The Experimental Animal Research Center of Wenzhou Medical University provided specific pathogen-free (SPF) Sprague-Dawley rats (male, 350 ± 20 g, 3 months old). This research was conducted following the principles of the Basel Declaration. […] After one week of rearing in the new environment and fasting overnight, the drug could be gavaged.
Rats were randomly divided into three groups (n = 6). […] After 7 days, on the seventh day, all groups had gavage at a single dosage of 2 mg/kg vonoprazan.
Centrifugation at 4,000 rpm for 10 min was performed to obtain 100 µL of plasma, to which was added 200 µL of acetonitrile and 20 µL of diazepam IS. After vortex mixing and centrifugation at 13,000 rpm for 5 min, 5 µL of supernatant was obtained for analysis by UPLC-MS/MS.
as §2

[5] = Amlodipine group (10 mg/kg amlodipine 7 days), single gavage 2 mg/kg vonoprazan, rat plasma
[6] = amlodipine-pretreated group vs control group, rats
[7] = Control group (CMC-Na 7 days), single gavage 2 mg/kg vonoprazan, rat plasma

| increase of AUC [4, 6] | AUC(0-inf) [4, 5] | AUC(0-t) [4, 5] | Cmax [4, 5] | Tmax [4, 5] | CL/F [4, 5] | MRT last [4, 5] | Vd/F [4, 5] | half-life [4, 5] | AUC(0-inf) [4, 7] | AUC(0-t) [4, 7] | Cmax [4, 7] | Tmax [4, 7] | CL/F [4, 7] | MRT last [4, 7] | MRT inf [4, 7] | Vd/F [4, 7] | half-life [4, 7] | SMILES | also measured |
| --- | --- | --- | --- | --- | --- | --- | --- | --- | --- | --- | --- | --- | --- | --- | --- | --- | --- | --- | --- |
|  |  |  |  |  |  |  |  |  |  |  |  |  |  |  |  |  |  | CCOC(=O)C1=C(COCCN)NC(C)=C(C(=O)OC)C1c1ccccc1Cl (centres unmarked) [Amlodipine, amlodipine besylate] | IC50 at 30 min [1]: 7.2 µM; IC50 at 30 min [2]: 17 µM; inhibition mechanism on vonoprazan metabolism ([3]; RLMs and HLMs, Lineweaver–Burk and Dixon plots): primarily competitive with some non-competitive inhibition |
|  |  |  |  |  |  |  |  |  |  |  |  |  |  |  |  |  |  | COc1ccc([C@@H]2Sc3ccccc3N(CCN(C)C)C(=O)[C@@H]2OC(C)=O)cc1 [Diltiazem, diltiazem hydrochloride] | inhibition effect on vonoprazan in preliminary in vitro evaluation ([3]; RLMs, roughly 100 µM drug): slightly increased inhibition effects |
| nearly twice | 59 ± 20.9 ng·h/mL | 58.5 ± 21.1 ng·h/mL | 19 ± 8.3 ng/mL | 1.67 ± 0.52 h | 614 mL/min/kg | 2.93 ± 0.3 h | 95.5 ± 51.3 L/kg | 1.73 ± 0.65 h | 29.1 ± 5.31 ng·h/mL | 28.8 ± 5.14 ng·h/mL | 10.2 ± 1.88 ng/mL | 0.75 ± 0.27 h | 1180 mL/min/kg | 2.72 ± 0.09 h | 2.87 ± 0.17 h | 190 ± 41.6 L/kg | 1.89 ± 0.37 h | CNCc1cc(-c2ccccc2F)n(S(=O)(=O)c2cccnc2)c1 [Vonoprazan, vonoprazan] | MRT(0-∞) [4, 5]: 3.06 ± 0.38 h; decrease of CLz/F [4, 6]: approximately by half; decrease of Vz/F [4, 6]: approximately by half; increase of Cmax [4, 6]: nearly twice; increase of Tmax [4, 6]: nearly twice |
| 1.6 fold | 2580 ± 450 ng·h/mL | 2550 ± 459 ng·h/mL | 836 ± 176 ng/mL | 1.58 ± 0.67 h | 13.2 mL/min/kg | 2.92 ± 0.19 h | 2.25 ± 1.11 L/kg | 1.91 ± 0.76 h | 1570 ± 189 ng·h/mL | 1540 ± 175 ng·h/mL | 766 ± 85.1 ng/mL | 1 h | 21.5 mL/min/kg | 2.13 ± 0.14 h | 2.44 ± 0.26 h | 5.28 ± 2.5 L/kg | 2.91 ± 1.51 h | O=C(O)c1cc(-c2ccccc2F)n(S(=O)(=O)c2cccnc2)c1 [MI, 5-(2-fluorophenyl)-1-(pyridin-3-ylsulfonyl)-1H-pyrrole-3-carboxylic acid] | fall of CLz/F [4, 6]: 38%; fall of Vz/F [4, 6]: 57%; increase of MRT (0-t) [4, 6]: 1.4 fold; increase of MRT (0-∞) [4, 6]: 1.2 fold; MRT inf [4, 5]: 3.11 ± 0.31 h |
